System: motoneurons
Test: Survival of motoneurons under trophic deprivation in vitro (calcein fluorescence)
Type: cell-based
Conditions: concentration 0.3 μM; E14 rat motoneurons, 3 days of culture in Neurobasal medium without trophic factors
From the text: It may be useful to refer to patent application WO 0142784 of the applicant regarding culture of the motoneurons of the spinal cord.
The spinal cord of E14 rat embryos is dissected and the ventral part is dissociated by trituration after trypsinization.
The motoneurons are separated from the other spinal cells by a known method (Camu et al., 1993, Purification of spinal motoneurons from chicken and rat embryos by immunopanning. In “Immunoselection Strategies for Neural cell culture”, Neuroprotocols: A companion to Methods in Neurosciences 2, 191-199; Henderson et al., 1993, Neutrophins promote motoneuron survival and are present in embryonic limb bud. Nature 363 (6426):266-70).
The cells are centrifuged on a density gradient. The motoneurons are enriched in the fraction of large cells (the […]). The cells of this fraction are incubated with an anti-p75 antibody, a surface antigen present on motoneurons.
Secondary antibodies coupled to magnetic beads are added and the mixture of cells is passed through a column in a magnet (Arce et al., 1999 Cardiotrophin-1 requires LIFRbeta to promote survival of mouse motoneurons purified by a novel technique. J. Neurosci Res 55(1): 119-26). Only the motoneurons are retained: their purity is of the order of 90%.
The motoneurons are seeded at low density in culture wells on a polyornithine-laminin substrate in a Neurobasal medium (GIBCO) supplemented according to Raoul et al., 1999, Programmed cell death of embryonic motoneurons triggered through the Fas death receptor. J Cell Biol 147(5):1049-62.
Negative controls (absence of trophic factors) and positive controls (in the presence of BDNF (Brain-Derived Neurotrophic Factor) at 1 ng/ml, GDNF (Glial-Derived Neurotrophic Factor) at 1 ng/ml and CNTF (Ciliary Neurotrophic Factor) at 10 ng/ml, marketed by the American company PEPROTECH, Inc. and the company Sigma-Aldrich, are included in each series.
The test compounds are added 60 minutes after seeding and the cultures are kept at 37° C. under 5% CO2 for 3 days.
The motoneurons have a spontaneous tendency to die in the absence of neurotrophic factors (Pettmann and Henderson, 1998, Neuronal cell death. Neuron 20(4):633-47). After 3 days, survival is evaluated by measurement of fluorescence after incubation of the cells in the presence of calcein, which becomes fluorescent in living cells.
After 3 days of culture at 37° C., under 5% CO2 and at saturating humidity, up to 50% of the motoneurons seeded initially survive in the medium supplemented with neurotrophic factors, whereas less than 15% of the motoneurons survive in the culture medium without addition of neurotrophic factors.
The neuroprotective activity of the test compounds was evaluated by their capacity for preventing death of motoneurons when they are added to the Neurobasal medium (GIBCO) in comparison with the survival of motoneurons in the medium to which neurotrophic factors were added.
This survival rate is expressed by the number of living cells after treatment with the test compound relative to the survival induced by the neurotrophic factors. This ratio can therefore represent the percentage survival due to the compound tested relative to the survival induced by the neurotrophic factors. If the ratio is greater than 0, the compounds have a positive effect on survival of the motoneurons.

Question: With `CC(C)CCC[C@@H](C)[C@H]1CCC2C3CC/C(=N/O)[C@](C)(CCCN(C)C(=O)CCCC[C@@H]4SC[C@@H]5NC(=O)N[C@@H]54)C3CC[C@@]21C` (stereo partly drawn) [Compound 4, 3-[(N-(+)-biotinoyl-N-methyl)amino]-4-nor-3,5-secocholestan-5-one oxime] as the compound, how does the “Ratio (living cells after treatment with the test compound relative to the survival induced by the neurotrophic factors)” value read?
Answer: Its value is over 0.2.

Same assay, conditions: concentration 1 μM; E14 rat motoneurons, 3 days of culture in Neurobasal medium without trophic factors

Question: With `CC(C)CCCC(C)C1CCC2C3C=CC(=NO)C(C)(CCCO)C3CCC12C` (stereo not drawn) [Compound 8, 4-nor-3,5-secocholest-6-en-3-ol-5-one oxime] as the compound, how does the “Ratio (living cells after treatment with the test compound relative to the survival induced by the neurotrophic factors)” value read?
Answer: Its value is over 0.2.

Question: For `CC(C)CCCC(C)C1CCC2C3CCC(=NO)C(C)(CCO)C3CCC12C` (stereo not drawn) [Compound 10, 3,4-dinor-2,5-secocholestan-2-ol-5-one oxime], which “Ratio (living cells after treatment with the test compound relative to the survival induced by the neurotrophic factors)” value is on record?
Answer: The value was over 0.2.

Question: For `CCC(C=CC(C)C1CCC2C3CCC(=NO)C(C)(CCCO)C3CCC12C)C(C)C` (stereo not drawn) [Compound 12, 24β-ethyl-4-nor-3,5-secocholest-22-en-3-ol-5-one oxime], which “Ratio (living cells after treatment with the test compound relative to the survival induced by the neurotrophic factors)” value is on record?
Answer: The value was over 0.2.

Question: For `CCCC1(C)C(=NO)CCC2C1CCC1(C)C(C(C)CCCC(C)C)CCC21` (stereo not drawn) [Compound 7, 4-nor-3,5-secocholestan-5-one oxime], which “Ratio (living cells after treatment with the test compound relative to the survival induced by the neurotrophic factors)” value is on record?
Answer: The value was over 0.2.

Question: Which “Ratio (living cells after treatment with the test compound relative to the survival induced by the neurotrophic factors)” value does the source give for `CC(C)CCCC(C)C1CCC2C3CCC(=NO)C(C)(CCC(O)C(F)(F)F)C3CCC12C` (stereo not drawn) [Compound 3, 4-nor-3,5-seco-3-(trifluoromethyl)cholestan-3-ol-5-one oxime] here?
Answer: Its value is over 0.2.

Question: Which “Ratio (living cells after treatment with the test compound relative to the survival induced by the neurotrophic factors)” value does the source give for `CC(C)=CCCC(C)C1CCC2C3CCC(=NO)C(C)(CCCO)C3CCC12C` (stereo not drawn) [Compound 11, 4-nor-3,5-secocholest-24-en-3-ol-5-one oxime] here?
Answer: Its value is over 0.2.

Question: With `CC(C)CCC[C@@H](C)[C@H]1CCC2C3CC/C(=N/O)[C@](C)(CCCN(C)c4ccc([N+](=O)[O-])c5nonc45)C3CC[C@@]21C` (stereo partly drawn) [Compound 5, 3-[methyl-(7-nitro-2,1,3-benzoxadiazol-4-yl)amino]-4-nor-3,5-secocholestan-5-one oxime] as the compound, how does the “Ratio (living cells after treatment with the test compound relative to the survival induced by the neurotrophic factors)” value read?
Answer: Its value is over 0.2.

Question: Which “Ratio (living cells after treatment with the test compound relative to the survival induced by the neurotrophic factors)” value does the source give for “7-hydroxyamino-4-nor-3,5-secocholest-6-year-3-ol-5-one oxime [Compound 9]” here?
Answer: The value was over 0.2.

Same assay, conditions: concentration 3 μM; E14 rat motoneurons, 3 days of culture in Neurobasal medium without trophic factors

Question: With `CC(CCCC(C)(C)O)C1CCC2C3CCC(=NO)C(C)(CCCO)C3CCC12C` (stereo not drawn) [Compound 2, 4-nor-3,5-secocholestan-3,25-diol-5-one oxime] as the compound, how does the “Ratio (living cells after treatment with the test compound relative to the survival induced by the neurotrophic factors)” value read?
Answer: The value was over 0.2.

Question: For `CC(CCCC(C)(C)F)C1CCC2C3CCC(=NO)C(C)(CCCO)C3CCC12C` (stereo not drawn) [Compound 6, 25-fluoro-4-nor-3,5-secocholestan-3-ol-5-one oxime], which “Ratio (living cells after treatment with the test compound relative to the survival induced by the neurotrophic factors)” value is on record?
Answer: Its value is over 0.2.

System: avidins (streptavidin or neutravidin)
Test: not given
Conditions: cited from earlier work

Question: Which “Ka (affinity of avidins for biotin)” value does the source give for `O=C(O)CCCC[C@@H]1SC[C@@H]2NC(=O)N[C@@H]21` [biotin] here?
Answer: The value was ~10^7 M.

Reference: patent publication US9115059B2, “Oxime derivatives of 3,5-seco-4-nor-cholestane, pharmaceutical compositions containing same, and method for preparing same” (TROPHOS, priority 2008, dated 2015)
